As a reminder, the IC50 is the concentration that inhibits the measured activity by half. Broadly, the AC50 is the concentration giving half of the maximal activity seen.

The subject of assay [1] is Non-small lung cancer ABC-1 cells. As to the kind of experiment: Cellular proliferation assay (CellTiter-Glo). In kind it is cell-based. The following applies: Homo sapiens, 72 h, 3 days of compound treatment. In general terms: Cellular ATP, detected with luciferase, serves as a proxy for viable cell number.
Procedure: Non-small lung cancer ABC-1 cells were plated at 5000 cells per well in 96-well plates and treated with 8 serial compound dilutions starting from 10 μM as the highest concentration. Viable cells were measured after 3 days of compound treatment using the CellTiter-Glo assay (Promega, G7570). Assay was performed following the manufacture protocol.
Assay [2] has as its system Axin2 protein in colorectal cell line SW480. The assay is described as follows: Cellular ELISA assay for stabilizing the Axin2 protein. The following applies: Homo sapiens; SW480 cells, 24 hrs; read-out: Axin AC50. In kind it is cell-based. As for the experimental part: Compound activity in stabilizing the Axin2 protein was measured by Sandwich Enzyme-Linked Immuosorbent (ELISA) assay in the colorectal cell line SW480. 30,000 SW480 cells were seeded per well in 96-well plate and incubated overnight prior to compound treatment. […] Cells were then washed with 100 μL of cold Phosphate Buffer Saline (PBS), and lysed in 125 μl of cold 1× lysis buffer (Cell Signaling Technology, 9803) supplemented with Protease inhibitor (Roche, 11836170) and Phosphatase inhibitors (Sigma, P2850, P5726). […] After blocking, plates were then washed three times with 300 μl/well of wash solution. 100 μL of prepared SW480 cell lysate was then added to each well and incubated at room temperature for 2 hours while shaking gently. After washing, 100 μL of Biotinylated anti-Axin2 antibody (CST, 2151) was added to each well and incubated room temperature for 2 hours. 100 μL of Streptavidin-HRP (R&D systems, DY998) diluted 1:200 in 1% BSA/PBS was then added in each well and incubate for 30 mins at R/T in the dark. Signal was detected by Chemiluminescence (Pierce SuperSignal ELISA Femto #3704), and measured on PerkinElmer Wallac 1420 plate reader.

In assay [3] the test system is Wnt ligand-induced signaling in HEK293 cells. As to the kind of experiment: Wnt-responsive Super-TOp-Flash (STF) luciferase reporter gene assay. The format is cell-based. The following applies: Homo sapiens, Wnt3A condition medium. How it is done: Compound activity in inhibiting Wnt ligand-induced signaling was measured using a Wnt-responsive Super-TOp-Flash (STF) luciferase reporter gene assay in HEK293 cells. On day 1 of the assay, cells were plated at a density of 8000 cells per well of 384-well plate in 25 μl medium containing 5% fetal bovine serum (FBS). […] On the third day, the luciferase activity was measured by the Bright-Glo™ Luciferase Assay System following manufacture's protocol (Promega, E2620).
Background: Reporter assays use an easily measured gene product as a stand-in for the process of interest.

In assay [4] the test system is Herpes Simplex Virus (HSV). The note with it: cited from earlier work.

For the compound `COc1ccc2c(c1)CC1(CCN([C@H]3CCN(Cc4nc5c(c(=O)[nH]4)COCC5)C3=O)CC1)C2=O` [Example 16, (S)-2-((3-(5-methoxy-1-oxo-1,3-dihydrospiro[indene-2,4′-piperidine]-1′-yl)-2-oxopyrrolidin-1-yl)methyl)-7,8-dihydro-3H-pyrano[4,3-d]pyrimidin-4(5H)-one], the 50% inhibitory concentration (IC50) in assay [1] came out at 0.082 µM; in assay [3], 0.0017 ± 0.0002 µM. Also, the half-maximal activity concentration (AC50) in assay [2] is 0.007 ± 0.001 µM.
As to `Oc1nc(-c2ccc(C(F)(F)F)cc2)nc2c1CSCC2` [XAV939], the viral growth entry in assay [4] was “decreased viral growth”.
Consider `COc1ccc2c(c1)CC1(CCN([C@@H]3CCN(Cc4nc5c(c(=O)[nH]4)COCC5)C3=O)CC1)C2=O` [Example 17, (R)-2-((3-(5-methoxy-1-oxo-1,3-dihydrospiro[indene-2,4′-piperidine]-1′-yl)-2-oxopyrrolidin-1-yl)methyl)-7,8-dihydro-3H-pyrano[4,3-d]pyrimidin-4(5H)-one], for which the values for the IC50 in assay [1] and in assay [3] were 2 ± 0.9 µM and 0.396 ± 0.01 µM, respectively. For the same compound, in assay [2], the AC50 came out at 1.79 ± 0.14 µM.
`COc1ccc(C(=O)C2CCN([C@H]3CCN(CC(=O)Nc4nnc5n4CCS5)C3=O)CC2)cc1` [Example 33, N-(5,6-dihydrothiazolo[2,3-c][1,2,4]triazol-3-yl)-2-((S)-3-(4-(4-methoxybenzoyl)piperidin-1-yl)-2-oxopyrrolidin-1-yl)acetamide]: in assay [1], the IC50 turned out to be 1.61 µM. For the same compound, in assay [2], the AC50 was found to be 1.34 ± 0.11 µM.
The corresponding values for `COc1ccc(C(=O)C2CCN([C@@H]3CCN(CC(=O)Nc4nnc5n4CCS5)C3=O)CC2)cc1` (single isomer, unassigned) [Example 34] are 0.049 µM and 0.078 ± 0.006 µM.
